Test results reported in ChEMBL document CHEMBL1944561, “Discovery and SAR exploration of a novel series of imidazo[4,5-b]pyrazin-2-ones as potent and selective mTOR kinase inhibitors” (Bioorg Med Chem Lett, 2011).

Tests used:
[1] = target: SRSF protein kinase 3 (Homo sapiens) (UniProt Q9UPE1); test: Inhibition of MSSK1 assessed as activity remaining at 10 uM
[2] = target: Tyrosine-protein kinase ABL1 (Homo sapiens) (UniProt P00519); test: Inhibition of Abl assessed as activity remaining at 10 uM
[3] = target: T1, Cytoplasmic tyrosine-protein kinase BMX (Homo sapiens) (UniProt P51813); test: Inhibition of Bmx assessed as activity remaining at 10 uM
T1 sequence (whole entry): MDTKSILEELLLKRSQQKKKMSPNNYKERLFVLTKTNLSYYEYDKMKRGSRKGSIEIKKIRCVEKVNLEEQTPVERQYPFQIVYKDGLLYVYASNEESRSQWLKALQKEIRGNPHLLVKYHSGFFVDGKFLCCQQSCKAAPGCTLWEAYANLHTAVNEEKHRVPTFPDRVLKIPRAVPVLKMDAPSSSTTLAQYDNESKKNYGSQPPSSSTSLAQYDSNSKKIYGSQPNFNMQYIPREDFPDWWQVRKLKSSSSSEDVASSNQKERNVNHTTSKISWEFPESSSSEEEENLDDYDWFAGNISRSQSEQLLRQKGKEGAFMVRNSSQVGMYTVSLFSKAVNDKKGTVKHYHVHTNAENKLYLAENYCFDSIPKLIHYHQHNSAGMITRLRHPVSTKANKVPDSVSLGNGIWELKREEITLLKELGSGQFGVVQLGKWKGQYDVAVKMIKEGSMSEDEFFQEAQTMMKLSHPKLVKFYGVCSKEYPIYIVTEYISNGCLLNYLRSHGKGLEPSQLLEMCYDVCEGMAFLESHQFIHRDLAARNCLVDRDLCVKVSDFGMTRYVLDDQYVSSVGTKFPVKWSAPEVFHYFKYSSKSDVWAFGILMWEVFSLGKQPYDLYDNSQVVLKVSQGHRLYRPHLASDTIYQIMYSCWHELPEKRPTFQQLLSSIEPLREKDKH

[4] = target: Mast/stem cell growth factor receptor Kit (Homo sapiens) (UniProt P10721); test: Inhibition of cKit assessed as activity remaining at 10 uM
[5] = target: Mitogen-activated protein kinase 14 (Homo sapiens) (UniProt Q16539); test: Inhibition of p38alpha assessed as activity remaining at 10 uM
[6] = target: Homeodomain-interacting protein kinase 1 (Homo sapiens) (UniProt Q86Z02); test: Inhibition of HIPK1 assessed as activity remaining at 10 uM
[7] = target: T2, Tyrosine-protein kinase JAK3 (Homo sapiens) (UniProt P52333); test: Inhibition of JAK3 assessed as activity remaining at 10 uM
T2 sequence (whole entry): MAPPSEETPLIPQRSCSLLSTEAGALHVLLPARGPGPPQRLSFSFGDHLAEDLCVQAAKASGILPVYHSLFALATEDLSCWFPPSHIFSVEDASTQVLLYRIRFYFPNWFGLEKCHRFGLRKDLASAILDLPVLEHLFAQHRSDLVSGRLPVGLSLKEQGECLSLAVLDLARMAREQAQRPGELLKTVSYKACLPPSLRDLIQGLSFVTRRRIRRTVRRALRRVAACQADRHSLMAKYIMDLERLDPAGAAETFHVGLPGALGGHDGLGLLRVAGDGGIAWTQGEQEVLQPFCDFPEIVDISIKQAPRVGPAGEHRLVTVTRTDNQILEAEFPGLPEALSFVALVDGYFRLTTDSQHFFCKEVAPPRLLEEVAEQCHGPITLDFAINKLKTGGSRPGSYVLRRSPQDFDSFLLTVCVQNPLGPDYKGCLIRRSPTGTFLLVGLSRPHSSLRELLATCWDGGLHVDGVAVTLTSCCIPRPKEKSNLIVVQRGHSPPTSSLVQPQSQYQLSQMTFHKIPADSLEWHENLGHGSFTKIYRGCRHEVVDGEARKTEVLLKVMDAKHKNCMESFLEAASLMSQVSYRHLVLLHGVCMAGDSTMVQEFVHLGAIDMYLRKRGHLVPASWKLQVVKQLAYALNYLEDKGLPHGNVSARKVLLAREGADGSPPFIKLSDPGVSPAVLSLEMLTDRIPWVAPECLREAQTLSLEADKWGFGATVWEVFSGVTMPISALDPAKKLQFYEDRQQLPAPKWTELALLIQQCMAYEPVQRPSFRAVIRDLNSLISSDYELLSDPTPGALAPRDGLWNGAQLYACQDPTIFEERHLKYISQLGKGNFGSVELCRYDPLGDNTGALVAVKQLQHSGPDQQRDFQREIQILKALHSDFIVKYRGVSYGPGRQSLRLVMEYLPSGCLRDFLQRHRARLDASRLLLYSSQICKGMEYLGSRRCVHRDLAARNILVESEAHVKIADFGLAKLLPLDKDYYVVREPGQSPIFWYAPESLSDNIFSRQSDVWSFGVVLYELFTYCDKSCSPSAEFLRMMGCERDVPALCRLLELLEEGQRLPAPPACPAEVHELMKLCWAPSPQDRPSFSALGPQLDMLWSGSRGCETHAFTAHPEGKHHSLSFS

[8] = target: T3, Serine/threonine-protein kinase TBK1 (Homo sapiens) (UniProt Q9UHD2); test: Inhibition of TBK1 assessed as activity remaining at 10 uM
T3 sequence (whole entry): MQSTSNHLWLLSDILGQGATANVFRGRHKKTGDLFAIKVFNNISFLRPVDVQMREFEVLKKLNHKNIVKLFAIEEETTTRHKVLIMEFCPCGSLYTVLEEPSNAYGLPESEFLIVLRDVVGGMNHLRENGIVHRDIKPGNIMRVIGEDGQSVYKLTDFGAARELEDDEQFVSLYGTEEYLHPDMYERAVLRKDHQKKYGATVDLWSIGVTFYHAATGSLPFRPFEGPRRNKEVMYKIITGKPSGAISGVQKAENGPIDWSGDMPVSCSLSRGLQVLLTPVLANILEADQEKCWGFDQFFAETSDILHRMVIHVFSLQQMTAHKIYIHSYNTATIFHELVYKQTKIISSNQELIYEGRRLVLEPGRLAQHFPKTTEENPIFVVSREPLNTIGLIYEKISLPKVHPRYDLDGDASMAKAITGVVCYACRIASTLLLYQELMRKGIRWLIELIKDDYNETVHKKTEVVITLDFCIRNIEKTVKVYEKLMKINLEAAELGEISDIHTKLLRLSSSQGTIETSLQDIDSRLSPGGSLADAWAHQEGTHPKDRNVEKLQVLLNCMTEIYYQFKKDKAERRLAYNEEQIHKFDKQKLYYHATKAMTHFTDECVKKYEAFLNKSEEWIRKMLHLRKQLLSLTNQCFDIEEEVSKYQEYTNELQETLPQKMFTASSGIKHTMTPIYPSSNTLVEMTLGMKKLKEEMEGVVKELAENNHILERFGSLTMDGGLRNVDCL

[9] = target: Tyrosine-protein kinase BTK (Homo sapiens) (UniProt Q06187); test: Inhibition of BTK assessed as activity remaining at 10 uM
[10] = target: Glycogen synthase kinase-3 alpha (Homo sapiens, UniProt P49840); test: Inhibition of GSK3alpha assessed as activity remaining at 10 uM
Glycogen synthase kinase-3 alpha, sequence (P49840 2-483 limits assumed): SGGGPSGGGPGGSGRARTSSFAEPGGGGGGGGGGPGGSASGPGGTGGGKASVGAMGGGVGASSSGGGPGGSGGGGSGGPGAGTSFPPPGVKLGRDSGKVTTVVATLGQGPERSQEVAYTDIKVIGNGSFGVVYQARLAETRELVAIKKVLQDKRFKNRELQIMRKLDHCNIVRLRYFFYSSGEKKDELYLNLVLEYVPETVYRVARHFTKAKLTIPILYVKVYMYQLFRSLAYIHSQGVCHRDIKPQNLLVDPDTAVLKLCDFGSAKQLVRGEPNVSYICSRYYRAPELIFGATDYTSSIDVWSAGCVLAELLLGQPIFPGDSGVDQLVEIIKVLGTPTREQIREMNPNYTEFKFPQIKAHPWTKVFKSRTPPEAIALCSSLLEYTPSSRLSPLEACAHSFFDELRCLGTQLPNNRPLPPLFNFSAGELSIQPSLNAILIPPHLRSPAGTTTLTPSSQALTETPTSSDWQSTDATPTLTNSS

SRSF protein kinase 3 (Homo sapiens), sequence (Q9UPE1 whole entry): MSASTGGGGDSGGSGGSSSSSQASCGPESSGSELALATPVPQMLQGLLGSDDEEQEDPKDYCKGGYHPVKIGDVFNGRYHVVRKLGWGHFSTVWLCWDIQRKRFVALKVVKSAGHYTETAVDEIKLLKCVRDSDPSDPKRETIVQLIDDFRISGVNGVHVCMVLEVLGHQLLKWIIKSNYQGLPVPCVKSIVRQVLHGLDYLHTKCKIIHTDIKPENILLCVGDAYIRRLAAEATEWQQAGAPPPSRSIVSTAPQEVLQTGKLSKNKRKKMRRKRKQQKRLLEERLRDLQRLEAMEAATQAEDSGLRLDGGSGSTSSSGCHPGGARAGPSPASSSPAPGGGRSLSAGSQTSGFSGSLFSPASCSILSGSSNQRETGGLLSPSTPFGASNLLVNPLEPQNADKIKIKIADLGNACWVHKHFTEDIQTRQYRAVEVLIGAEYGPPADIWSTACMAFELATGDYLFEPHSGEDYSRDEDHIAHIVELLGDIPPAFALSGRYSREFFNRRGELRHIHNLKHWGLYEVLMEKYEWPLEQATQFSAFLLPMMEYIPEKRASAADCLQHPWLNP
Tyrosine-protein kinase BTK (Homo sapiens), sequence (Q06187 whole entry): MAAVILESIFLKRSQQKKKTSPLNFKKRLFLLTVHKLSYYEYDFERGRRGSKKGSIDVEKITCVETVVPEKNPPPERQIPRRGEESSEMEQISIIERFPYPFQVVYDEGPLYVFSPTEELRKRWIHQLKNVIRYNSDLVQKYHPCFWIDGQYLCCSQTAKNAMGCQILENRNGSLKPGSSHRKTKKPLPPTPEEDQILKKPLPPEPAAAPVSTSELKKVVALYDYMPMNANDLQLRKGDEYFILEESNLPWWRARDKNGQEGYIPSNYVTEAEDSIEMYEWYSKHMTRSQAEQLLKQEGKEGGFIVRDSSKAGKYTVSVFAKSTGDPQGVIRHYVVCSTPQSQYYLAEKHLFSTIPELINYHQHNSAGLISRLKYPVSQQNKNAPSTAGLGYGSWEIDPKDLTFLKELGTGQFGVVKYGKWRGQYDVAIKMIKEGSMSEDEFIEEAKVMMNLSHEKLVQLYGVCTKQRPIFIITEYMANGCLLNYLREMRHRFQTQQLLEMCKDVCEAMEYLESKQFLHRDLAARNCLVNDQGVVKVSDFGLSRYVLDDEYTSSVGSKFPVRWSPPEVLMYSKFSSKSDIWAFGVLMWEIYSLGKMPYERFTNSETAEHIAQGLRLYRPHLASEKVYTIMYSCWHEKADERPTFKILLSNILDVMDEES
Mast/stem cell growth factor receptor Kit (Homo sapiens), sequence (P10721 whole entry): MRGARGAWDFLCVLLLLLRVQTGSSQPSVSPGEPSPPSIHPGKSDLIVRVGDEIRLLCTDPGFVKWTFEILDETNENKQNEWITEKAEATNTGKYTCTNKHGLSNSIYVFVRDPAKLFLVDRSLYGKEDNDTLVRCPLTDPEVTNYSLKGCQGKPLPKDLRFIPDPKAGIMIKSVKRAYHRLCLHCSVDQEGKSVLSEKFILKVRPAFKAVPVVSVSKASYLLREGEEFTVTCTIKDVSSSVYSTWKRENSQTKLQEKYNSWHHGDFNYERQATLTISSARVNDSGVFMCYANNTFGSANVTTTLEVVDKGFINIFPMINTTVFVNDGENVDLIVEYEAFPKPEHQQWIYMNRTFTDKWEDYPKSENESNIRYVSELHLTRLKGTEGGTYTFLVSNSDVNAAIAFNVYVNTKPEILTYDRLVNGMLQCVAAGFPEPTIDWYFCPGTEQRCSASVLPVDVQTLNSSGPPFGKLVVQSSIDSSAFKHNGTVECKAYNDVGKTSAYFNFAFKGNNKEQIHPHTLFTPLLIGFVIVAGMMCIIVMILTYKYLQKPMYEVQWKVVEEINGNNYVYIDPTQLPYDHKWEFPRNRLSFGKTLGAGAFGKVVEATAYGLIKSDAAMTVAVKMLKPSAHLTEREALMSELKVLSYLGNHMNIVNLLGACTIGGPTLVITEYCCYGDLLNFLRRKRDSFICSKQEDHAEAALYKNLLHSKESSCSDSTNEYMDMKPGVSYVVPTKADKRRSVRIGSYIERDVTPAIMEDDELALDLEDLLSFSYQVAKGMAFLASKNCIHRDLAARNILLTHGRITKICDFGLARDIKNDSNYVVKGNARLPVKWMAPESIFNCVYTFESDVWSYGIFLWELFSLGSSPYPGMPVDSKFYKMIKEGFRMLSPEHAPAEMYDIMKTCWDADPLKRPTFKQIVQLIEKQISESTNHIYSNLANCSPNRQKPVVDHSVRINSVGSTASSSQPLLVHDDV
Homeodomain-interacting protein kinase 1 (Homo sapiens), sequence (Q86Z02 whole entry, looked up): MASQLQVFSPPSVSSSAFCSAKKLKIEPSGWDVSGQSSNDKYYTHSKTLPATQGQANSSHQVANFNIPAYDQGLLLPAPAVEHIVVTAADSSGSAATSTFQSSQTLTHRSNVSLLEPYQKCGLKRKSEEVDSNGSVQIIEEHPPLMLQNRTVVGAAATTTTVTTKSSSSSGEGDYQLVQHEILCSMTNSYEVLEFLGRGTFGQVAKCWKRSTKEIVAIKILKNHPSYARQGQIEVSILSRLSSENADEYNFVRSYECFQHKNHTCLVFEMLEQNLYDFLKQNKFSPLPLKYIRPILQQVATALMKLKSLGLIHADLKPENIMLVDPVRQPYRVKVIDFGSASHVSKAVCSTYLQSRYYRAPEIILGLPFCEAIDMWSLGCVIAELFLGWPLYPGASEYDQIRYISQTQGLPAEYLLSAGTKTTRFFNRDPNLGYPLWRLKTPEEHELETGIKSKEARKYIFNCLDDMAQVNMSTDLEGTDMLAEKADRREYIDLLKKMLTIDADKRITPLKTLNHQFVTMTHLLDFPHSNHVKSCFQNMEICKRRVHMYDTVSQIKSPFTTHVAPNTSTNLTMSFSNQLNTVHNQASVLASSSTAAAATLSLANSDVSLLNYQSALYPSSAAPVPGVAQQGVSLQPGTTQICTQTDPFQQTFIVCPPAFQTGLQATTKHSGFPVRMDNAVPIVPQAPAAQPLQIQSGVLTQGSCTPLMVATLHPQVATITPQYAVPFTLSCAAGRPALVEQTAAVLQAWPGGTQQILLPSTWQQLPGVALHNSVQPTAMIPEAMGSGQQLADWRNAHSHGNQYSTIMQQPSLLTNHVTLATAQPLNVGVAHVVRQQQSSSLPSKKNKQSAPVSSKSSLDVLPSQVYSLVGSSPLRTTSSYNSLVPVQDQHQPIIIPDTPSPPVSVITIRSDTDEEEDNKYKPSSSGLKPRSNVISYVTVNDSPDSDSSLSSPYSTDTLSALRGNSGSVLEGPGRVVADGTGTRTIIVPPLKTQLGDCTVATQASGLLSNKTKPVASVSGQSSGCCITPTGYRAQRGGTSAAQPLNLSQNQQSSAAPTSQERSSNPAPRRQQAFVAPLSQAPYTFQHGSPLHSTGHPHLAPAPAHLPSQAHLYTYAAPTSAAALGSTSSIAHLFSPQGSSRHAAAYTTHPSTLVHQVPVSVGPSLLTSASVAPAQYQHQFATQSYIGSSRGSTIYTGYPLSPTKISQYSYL
Tyrosine-protein kinase ABL1 (Homo sapiens), sequence (P00519 whole entry): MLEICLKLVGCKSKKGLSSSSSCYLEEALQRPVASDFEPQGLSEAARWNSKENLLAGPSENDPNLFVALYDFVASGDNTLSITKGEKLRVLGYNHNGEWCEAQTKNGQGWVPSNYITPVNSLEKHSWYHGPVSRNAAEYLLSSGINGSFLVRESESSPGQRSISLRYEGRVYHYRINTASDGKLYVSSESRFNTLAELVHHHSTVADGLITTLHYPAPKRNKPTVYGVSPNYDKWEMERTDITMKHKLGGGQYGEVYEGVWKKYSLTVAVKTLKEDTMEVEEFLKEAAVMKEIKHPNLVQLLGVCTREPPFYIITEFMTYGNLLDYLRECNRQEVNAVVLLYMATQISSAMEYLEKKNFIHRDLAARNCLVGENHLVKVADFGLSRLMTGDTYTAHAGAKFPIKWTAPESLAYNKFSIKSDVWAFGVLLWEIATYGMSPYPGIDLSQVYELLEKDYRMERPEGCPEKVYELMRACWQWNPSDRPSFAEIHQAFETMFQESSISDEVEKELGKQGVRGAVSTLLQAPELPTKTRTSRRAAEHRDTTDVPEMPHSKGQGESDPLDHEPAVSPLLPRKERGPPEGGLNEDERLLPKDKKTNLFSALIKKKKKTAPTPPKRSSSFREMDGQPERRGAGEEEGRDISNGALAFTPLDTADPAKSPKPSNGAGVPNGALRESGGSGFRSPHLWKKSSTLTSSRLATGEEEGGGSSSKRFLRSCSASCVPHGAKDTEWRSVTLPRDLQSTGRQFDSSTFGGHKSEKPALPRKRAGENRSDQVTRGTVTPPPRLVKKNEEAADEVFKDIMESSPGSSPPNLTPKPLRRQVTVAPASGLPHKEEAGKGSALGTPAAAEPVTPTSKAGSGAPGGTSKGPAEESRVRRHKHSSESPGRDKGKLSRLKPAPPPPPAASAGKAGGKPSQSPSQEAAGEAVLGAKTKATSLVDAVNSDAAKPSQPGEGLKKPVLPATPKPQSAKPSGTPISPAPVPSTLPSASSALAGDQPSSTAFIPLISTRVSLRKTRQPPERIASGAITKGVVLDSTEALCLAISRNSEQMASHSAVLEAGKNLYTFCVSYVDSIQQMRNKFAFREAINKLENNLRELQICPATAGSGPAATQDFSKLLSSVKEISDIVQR

| Compound | Activity [1] [%] | Activity [2] [%] | Activity [3] [%] | Activity [4] [%] | Activity [5] [%] | Activity [6] [%] | Activity [7] [%] | Activity [8] [%] | Activity [9] [%] | Activity [10] [%] |
| --- | --- | --- | --- | --- | --- | --- | --- | --- | --- | --- |
| O=c1[nH]c2ncc(-c3ccc4[nH]cnc4c3)nc2n1CC1CCCCC1 | 91 | 23 | 92 | 94 | 75 | 84 | 95 | 77 | 88 | 3 |
| CC(C)(O)c1ccc(-c2cnc3[nH]c(=O)n(CC4CCCCC4)c3n2)cc1 | 89 | 53 | 85 | 83 | 92 | 94 | 101 | 91 | 84 | 16 |
| O=c1[nH]c2ncc(-c3ccc(-c4nc[nH]n4)cc3)nc2n1CC1CCOCC1 | 93 | 83 | 93 | 95 | 92 | 91 | 96 | 94 | 90 | 39 |
